For assay [1], the target named is Glyceraldehyde-3-phosphate dehydrogenase (Homo sapiens, UniProt P04406).
The target of assay [2] is T1, Bcl-2-related protein A1 (Mus musculus, UniProt Q07440).
T1 sequence (Q07440 whole entry): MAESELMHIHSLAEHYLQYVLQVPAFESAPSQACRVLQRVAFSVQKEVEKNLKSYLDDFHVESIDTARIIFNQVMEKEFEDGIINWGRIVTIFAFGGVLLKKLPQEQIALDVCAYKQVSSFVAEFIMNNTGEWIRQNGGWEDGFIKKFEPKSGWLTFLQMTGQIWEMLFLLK
Nature of the assay: small-molecule antagonists of Bfl-1/BH3 interaction – biochemical, TR-FRET, mouse Bfl-1, confirmation (AID 621). (In general: In TR-FRET formats the signal depends on donor and acceptor labels being close together.)

Assay [3] deals with T1, Bcl-2-related protein A1. Nature of the assay: Bfl-1 binding inhibitors, SAR follow-up, biochemical, fluorescence polarization (AID 1070). In general terms: In fluorescence polarisation assays a small probe gives low polarisation when free and higher when bound to something large.
Assay [4] concerns the target T2, Nucleotide-binding oligomerization domain-containing protein 1 (Homo sapiens, UniProt Q9Y239).
T2 sequence (Q9Y239 whole entry): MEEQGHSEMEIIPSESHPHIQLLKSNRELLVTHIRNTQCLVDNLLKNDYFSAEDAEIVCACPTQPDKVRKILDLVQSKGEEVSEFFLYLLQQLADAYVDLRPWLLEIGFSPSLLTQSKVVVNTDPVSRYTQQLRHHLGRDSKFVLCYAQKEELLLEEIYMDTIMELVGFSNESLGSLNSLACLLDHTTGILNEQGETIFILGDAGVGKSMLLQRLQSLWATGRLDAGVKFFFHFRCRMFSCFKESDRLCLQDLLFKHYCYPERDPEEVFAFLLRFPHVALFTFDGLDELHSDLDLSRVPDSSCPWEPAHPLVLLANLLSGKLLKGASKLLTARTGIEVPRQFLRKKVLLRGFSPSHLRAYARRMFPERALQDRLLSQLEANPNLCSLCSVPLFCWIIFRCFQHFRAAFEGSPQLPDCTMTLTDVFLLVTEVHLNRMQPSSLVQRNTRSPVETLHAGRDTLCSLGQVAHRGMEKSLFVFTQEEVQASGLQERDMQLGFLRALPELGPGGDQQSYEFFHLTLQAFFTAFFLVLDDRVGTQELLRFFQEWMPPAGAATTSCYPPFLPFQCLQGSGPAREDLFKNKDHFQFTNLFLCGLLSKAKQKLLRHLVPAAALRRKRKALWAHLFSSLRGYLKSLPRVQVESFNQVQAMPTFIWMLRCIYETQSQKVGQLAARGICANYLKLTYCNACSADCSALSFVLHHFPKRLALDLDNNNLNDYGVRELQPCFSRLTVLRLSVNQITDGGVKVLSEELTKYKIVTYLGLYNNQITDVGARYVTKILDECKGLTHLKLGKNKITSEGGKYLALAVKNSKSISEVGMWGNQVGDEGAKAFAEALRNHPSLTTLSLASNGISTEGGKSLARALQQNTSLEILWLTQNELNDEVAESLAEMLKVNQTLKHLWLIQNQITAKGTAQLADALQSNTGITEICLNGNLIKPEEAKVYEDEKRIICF
Briefly: SAR analysis of compounds that inhibit NOD1 - Set 3. [Related pubchem assays (depositor defined):AID1566, AID1575, AID1578, AID1849, AID1852, AID2333, AID2335, AID2466]. Type of assay: functional.

The target in assay [5] is Tumor necrosis factor (Homo sapiens, UniProt P01375). Nature of the assay: analog potency on TNFa NF-kB signaling – cell-based, set 3, SAR follow-up (AID 2801). It counts as functional.
Assay [6] concerns HEK293. Nature of the assay: SAR analysis of compounds that are cytotoxic to HEK293 - Set 3. [Related pubchem assays (depositor defined):AID1575, AID1578, AID1848, AID1849, AID2001, AID2333, AID2334, AID2335, AID2337, AID2469]. The settings on record: Homo sapiens. Type of assay: functional, cell-based.
The target in assay [7] is Nucleotide-binding oligomerization domain-containing protein 2 (Homo sapiens, UniProt Q9HC29). Briefly: inhibition of MDP-driven NOD2 NF-kB reporter – cell-based, set 3, SAR follow-up (AID 2799). It counts as functional.
Assay [8] has as its system Vero. Briefly: Vero 76 cell viability after compound exposure – Vero 76 cells, synthesized analogs, cytotoxicity control for West Nile virus antiviral project, SAR follow-up (AID 2414). Type of assay: functional. The settings on record: Chlorocebus sabaeus.
The test system of assay [9] is Vero. Nature of the assay: Vero cell viability after compound exposure – synthesized analogs, set II, cytotoxicity control for West Nile virus antiviral project, SAR follow-up (AID 2402). Type of assay: functional. The settings on record: Chlorocebus sabaeus.
Assay [10] in a line: A Cell Based Assay for the Identification of Probe candidate Compounds with Anti- Venezuelan Equine Encephalitis virus. [Related pubchem assays: 2409, 2419, 1621, 2238, 2405, 2024, 2065, 2402, 2414, 1635, 1650, 2244 ]. Type of assay: functional.
The target in assay [11] is NADPH oxidase 1 (Homo sapiens, UniProt Q9Y5S8). It counts as functional, cell-based.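 Also: Cell-based assay with luminescence read-out, IC50 derived from inhibitor dose-response curves; intracellular ROS from endogenous NOX1 in intact HT29 colon cancer cells; potency of inhibitors that lower the ROS luminescence signal.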
A short description of assay [12]: mRNA 3' processing disruption, beta-gal signal increase – luminescence, S. cerevisiae SKY197-pL101, dose response (AID 2525). It counts as functional, cell-based.
The nature of assay [13]: Luminescence Cell-Based Dose Confirmation HTS to Identify Inhibitors of Polyadenylation. It counts as functional.
Assay [14] addresses Protein-tyrosine kinase 2-beta (Homo sapiens, UniProt Q14289).
Assay [15] has as its target T3, Bcl-2-like protein 10 (Homo sapiens, UniProt Q9HD36).
T3 sequence (Q9HD36 whole entry): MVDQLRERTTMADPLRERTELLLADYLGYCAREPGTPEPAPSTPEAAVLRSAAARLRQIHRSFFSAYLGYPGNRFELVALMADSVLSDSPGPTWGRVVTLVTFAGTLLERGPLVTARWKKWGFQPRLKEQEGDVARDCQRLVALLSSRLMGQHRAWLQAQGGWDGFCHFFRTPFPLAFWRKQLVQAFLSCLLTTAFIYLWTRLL
Briefly: Concentration-response of Bcl-B inhibitors by biochemical FP with TR3 (AID 1243). Type of assay: functional.

In assay [16] the test system is Streptococcus sp. 'group A'. Briefly: Streptococcus pyogenes SK(-)GAS viability under kanamycin – luminescence, BacTiterGlo, confirmation, counter-screen for streptokinase expression inhibitor project, dose response (AID 1900). It counts as functional, organism-based.
Assay [17] can be described thus: cells. Type of assay: functional, cell-based.
For assay [18], the target named is T4, Streptokinase A (Streptococcus pyogenes serotype M1, UniProt P10520).
T4 sequence (P10520 whole entry): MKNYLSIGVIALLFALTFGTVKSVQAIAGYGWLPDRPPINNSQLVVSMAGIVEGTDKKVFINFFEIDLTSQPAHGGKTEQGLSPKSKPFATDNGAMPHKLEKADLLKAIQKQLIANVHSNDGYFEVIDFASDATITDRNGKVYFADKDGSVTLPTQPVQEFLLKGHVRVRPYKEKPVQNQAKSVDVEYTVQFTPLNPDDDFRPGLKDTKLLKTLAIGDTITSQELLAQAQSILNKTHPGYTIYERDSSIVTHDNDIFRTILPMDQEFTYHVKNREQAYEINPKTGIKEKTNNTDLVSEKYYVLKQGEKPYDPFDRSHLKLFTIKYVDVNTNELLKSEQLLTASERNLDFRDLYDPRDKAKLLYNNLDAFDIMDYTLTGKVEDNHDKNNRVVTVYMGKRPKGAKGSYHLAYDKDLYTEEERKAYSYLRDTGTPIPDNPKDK
Briefly: viability-normalized secreted streptokinase activity reduction – plasminogen activation absorbance, OD405, dose response (AID 1914).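 Also: secreted streptokinase activity via plasminogen activation per viability signal from cell pellet.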 It counts as functional, Streptococcus pyogenes M1 GAS.

A short description of assay [19]: Trypanosoma cruzi growth suppression in host cells – NIH3T3 host cells, beta-gal luminescence, confirmation (AID 2044).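 Also: intracellular parasites grown in NIH/3T3 mouse fibroblasts as host cells; luminescent beta-galactosidase reporter signal from transgenic T. cruzi replicating inside host cells; inhibitors lower the luminescence signal.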 Type of assay: functional, cell-based.
Assay [20] in a line: cells. Type of assay: functional, cell-based. This is another data set of the same source.
For assay [21], the target named is Galanin receptor type 2 (Homo sapiens, UniProt O43603). Briefly: Dose Response cell-based high-throughput screening assay to identify agonists of galanin receptor 2 (GALR2). [Related pubchem assays: 864 ]. It counts as functional.
Assay [22] in a line: NIH3T3 cell viability loss – ATP luminescence, mouse fibroblasts, counter-screen, dose response (AID 2010).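 Also: cells exposed to compound for about 90 hours before reading.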 Type of assay: functional, cell-based.
The test system of assay [23] is Streptococcus. Briefly: GAS UMAA2166 growth inhibition – luminescence, BacTiterGlo, counter-screen for streptokinase expression inhibitor project, dose response (AID 1915).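 Also: potency for reduction of bacterial viability or growth.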 Type of assay: functional, organism-based.
The subject of assay [24] is INS1. Nature of the assay: INS-1E survival protection against cytokine death – cell-based, luminescence, retest, dose response (AID 449756).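 Also: cell death triggered by IL-1 beta plus TNF-alpha plus IFN-gamma mixture; protective hits raise ATP signal compared with cytokine alone wells.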 The settings on record: Rattus norvegicus. Type of assay: functional.
In assay [25] the target is Lysosomal acid glucosylceramidase (Homo sapiens, UniProt P04062). Nature of the assay: Dose response cell-based high throughput screening assay to identify enhancers of beta-glucosidase activity. [Related pubchem assays: 784 ]. Type of assay: functional.
In assay [26] the target is Photoreceptor-specific nuclear receptor (Homo sapiens, UniProt Q9Y5X4). It counts as functional.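 Also: potency for compounds that break the NR2E3 corepressor complex and count as activators.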
For assay [27], the target named is Peroxisome proliferator-activated receptor gamma/Nuclear receptor corepressor 2 (Homo sapiens, UniProt P37231+Q9Y618). It counts as functional.
Assay [28] is described as follows: Luminescence-based counterscreen assay for KLF5 inhibitors: dose response cell-based high throughput screening assay to identify cytotoxic compounds using the IEC-6 intestinal epithelial cell line. [Related pubchem assays: 1700 (Primary screen.), 1834 (Confirmation screen.), 1858 (Summary AID.), 1905 (Counterscreen.)]. It counts as functional. For orientation: Counterscreens check selectivity or assay interference.

Assay [29] has as its target Nonstructural protein 1 (Influenza A virus, UniProt Q194T2). It counts as functional, Influenza A virus (A/California/07/2009(H1N1)).
Assay [30] concerns the target T5, Alkaline phosphatase, tissue-nonspecific isozyme (Homo sapiens, UniProt P05186).
T5 sequence (P05186 whole entry): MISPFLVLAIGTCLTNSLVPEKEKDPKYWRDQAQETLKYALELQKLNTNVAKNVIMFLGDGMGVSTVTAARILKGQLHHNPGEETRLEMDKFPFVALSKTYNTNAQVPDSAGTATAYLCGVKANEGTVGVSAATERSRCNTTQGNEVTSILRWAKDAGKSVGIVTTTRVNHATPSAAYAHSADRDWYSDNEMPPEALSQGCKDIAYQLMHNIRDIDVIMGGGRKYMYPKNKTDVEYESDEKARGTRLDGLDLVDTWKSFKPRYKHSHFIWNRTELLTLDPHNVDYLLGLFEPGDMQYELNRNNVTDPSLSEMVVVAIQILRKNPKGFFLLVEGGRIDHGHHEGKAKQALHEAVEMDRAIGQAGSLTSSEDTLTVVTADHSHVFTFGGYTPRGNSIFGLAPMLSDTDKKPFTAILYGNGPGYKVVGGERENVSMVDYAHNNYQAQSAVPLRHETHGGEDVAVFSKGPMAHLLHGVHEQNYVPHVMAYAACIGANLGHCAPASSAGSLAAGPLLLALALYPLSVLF

The record followed here is ChEMBL document CHEMBL1201862, “PubChem BioAssay data set” (2004).

Active and inactive are the calls of the source.

Chain of NADPH oxidase 1 (Q9Y5S8 whole entry): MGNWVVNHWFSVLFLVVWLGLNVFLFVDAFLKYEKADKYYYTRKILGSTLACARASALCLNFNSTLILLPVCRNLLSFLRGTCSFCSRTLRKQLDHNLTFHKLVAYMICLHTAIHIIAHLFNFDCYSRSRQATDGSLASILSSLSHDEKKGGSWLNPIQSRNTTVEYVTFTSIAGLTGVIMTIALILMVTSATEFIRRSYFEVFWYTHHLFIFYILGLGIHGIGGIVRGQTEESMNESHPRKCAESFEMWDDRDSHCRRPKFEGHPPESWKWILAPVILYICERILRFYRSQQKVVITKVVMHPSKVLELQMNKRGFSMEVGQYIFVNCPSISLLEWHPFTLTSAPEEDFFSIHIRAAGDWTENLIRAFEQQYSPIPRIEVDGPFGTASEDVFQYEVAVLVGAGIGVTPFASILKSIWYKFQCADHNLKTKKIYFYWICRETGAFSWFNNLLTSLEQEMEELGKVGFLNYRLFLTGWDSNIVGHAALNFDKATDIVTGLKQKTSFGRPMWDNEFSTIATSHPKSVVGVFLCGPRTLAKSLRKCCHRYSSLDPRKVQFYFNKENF
Chain of Lysosomal acid glucosylceramidase (P04062 whole entry): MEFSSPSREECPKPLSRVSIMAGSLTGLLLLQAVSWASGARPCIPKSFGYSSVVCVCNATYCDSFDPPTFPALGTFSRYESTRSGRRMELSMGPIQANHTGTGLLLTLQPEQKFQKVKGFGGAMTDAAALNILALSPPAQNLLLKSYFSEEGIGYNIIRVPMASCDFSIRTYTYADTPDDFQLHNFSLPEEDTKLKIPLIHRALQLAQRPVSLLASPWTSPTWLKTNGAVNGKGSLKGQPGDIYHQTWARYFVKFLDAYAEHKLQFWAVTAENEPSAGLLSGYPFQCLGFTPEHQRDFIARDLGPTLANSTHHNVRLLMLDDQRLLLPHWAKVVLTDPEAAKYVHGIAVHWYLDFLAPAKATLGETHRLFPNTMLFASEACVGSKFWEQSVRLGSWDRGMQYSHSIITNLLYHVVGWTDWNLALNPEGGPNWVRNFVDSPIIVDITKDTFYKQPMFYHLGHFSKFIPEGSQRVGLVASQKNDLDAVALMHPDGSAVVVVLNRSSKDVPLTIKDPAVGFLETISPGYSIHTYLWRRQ
Chain of Nucleotide-binding oligomerization domain-containing protein 2 (Q9HC29 whole entry, the tested form may be a part): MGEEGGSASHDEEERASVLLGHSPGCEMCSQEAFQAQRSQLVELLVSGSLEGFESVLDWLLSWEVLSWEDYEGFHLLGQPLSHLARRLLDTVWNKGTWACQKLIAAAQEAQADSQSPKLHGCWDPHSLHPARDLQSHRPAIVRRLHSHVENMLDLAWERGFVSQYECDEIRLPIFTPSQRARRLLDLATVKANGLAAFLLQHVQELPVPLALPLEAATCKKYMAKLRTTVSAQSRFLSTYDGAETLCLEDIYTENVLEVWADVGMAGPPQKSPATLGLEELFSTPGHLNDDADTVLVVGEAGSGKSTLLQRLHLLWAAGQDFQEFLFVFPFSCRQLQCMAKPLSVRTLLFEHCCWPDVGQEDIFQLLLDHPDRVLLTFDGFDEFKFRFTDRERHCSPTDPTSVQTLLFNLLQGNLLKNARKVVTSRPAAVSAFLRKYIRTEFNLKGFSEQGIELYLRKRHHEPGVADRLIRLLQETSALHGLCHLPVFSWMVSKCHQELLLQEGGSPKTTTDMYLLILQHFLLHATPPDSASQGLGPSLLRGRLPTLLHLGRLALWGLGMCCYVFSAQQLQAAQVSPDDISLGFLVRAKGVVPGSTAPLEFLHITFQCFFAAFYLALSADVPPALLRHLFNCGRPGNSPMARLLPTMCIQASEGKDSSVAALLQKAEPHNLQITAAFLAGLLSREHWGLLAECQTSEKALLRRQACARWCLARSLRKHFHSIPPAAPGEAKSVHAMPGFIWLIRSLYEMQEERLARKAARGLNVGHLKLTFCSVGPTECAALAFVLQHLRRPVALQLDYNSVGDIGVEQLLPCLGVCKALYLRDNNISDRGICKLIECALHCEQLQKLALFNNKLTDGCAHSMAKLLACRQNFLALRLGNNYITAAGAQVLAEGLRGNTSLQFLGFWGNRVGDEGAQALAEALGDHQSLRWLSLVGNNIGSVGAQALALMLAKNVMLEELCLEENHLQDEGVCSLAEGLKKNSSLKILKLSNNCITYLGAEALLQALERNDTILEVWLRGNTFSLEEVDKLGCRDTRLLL
Chain of Galanin receptor type 2 (O43603 whole entry): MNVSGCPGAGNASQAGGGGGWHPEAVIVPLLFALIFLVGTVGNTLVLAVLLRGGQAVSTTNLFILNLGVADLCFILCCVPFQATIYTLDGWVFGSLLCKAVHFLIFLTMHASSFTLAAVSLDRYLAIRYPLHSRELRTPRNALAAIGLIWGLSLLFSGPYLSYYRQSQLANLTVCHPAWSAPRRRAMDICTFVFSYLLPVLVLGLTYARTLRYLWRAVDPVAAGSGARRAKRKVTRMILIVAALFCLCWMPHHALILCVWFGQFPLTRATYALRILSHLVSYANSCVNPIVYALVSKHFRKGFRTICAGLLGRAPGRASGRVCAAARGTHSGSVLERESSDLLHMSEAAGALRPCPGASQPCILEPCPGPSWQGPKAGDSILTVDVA
Chain of Protein-tyrosine kinase 2-beta (Q14289 whole entry): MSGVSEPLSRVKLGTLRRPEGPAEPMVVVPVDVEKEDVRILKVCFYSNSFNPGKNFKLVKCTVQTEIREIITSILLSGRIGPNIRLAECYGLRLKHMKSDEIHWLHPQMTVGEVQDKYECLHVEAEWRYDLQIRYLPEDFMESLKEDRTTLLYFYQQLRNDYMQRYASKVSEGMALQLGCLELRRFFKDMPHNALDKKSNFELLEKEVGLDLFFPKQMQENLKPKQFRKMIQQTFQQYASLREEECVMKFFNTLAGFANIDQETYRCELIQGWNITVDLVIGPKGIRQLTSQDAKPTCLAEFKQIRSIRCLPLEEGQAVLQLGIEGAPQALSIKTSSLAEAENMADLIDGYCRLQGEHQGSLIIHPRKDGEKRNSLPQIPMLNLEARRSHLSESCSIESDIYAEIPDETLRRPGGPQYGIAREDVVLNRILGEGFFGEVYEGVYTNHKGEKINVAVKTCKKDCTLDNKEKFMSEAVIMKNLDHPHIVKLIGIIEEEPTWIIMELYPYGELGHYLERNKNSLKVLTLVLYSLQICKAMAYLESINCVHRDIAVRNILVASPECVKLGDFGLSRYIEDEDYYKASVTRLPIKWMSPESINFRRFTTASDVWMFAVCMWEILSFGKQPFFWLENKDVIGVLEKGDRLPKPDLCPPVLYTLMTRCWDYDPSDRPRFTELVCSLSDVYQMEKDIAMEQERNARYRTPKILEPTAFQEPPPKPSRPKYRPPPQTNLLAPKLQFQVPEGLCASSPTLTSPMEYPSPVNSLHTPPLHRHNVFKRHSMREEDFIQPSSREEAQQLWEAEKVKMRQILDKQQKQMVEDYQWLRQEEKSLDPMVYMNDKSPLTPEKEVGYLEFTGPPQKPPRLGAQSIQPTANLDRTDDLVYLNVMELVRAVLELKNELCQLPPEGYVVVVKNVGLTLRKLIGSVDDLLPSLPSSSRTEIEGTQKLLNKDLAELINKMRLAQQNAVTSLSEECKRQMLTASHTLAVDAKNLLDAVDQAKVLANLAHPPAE
Chain of Tumor necrosis factor (P01375 whole entry): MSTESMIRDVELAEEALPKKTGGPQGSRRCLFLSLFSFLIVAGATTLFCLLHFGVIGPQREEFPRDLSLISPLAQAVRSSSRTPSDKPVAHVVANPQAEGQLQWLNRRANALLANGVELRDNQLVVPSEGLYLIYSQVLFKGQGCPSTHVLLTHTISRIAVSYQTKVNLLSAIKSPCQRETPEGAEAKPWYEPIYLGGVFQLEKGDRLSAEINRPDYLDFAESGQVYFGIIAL
Chain of Photoreceptor-specific nuclear receptor (Q9Y5X4 whole entry): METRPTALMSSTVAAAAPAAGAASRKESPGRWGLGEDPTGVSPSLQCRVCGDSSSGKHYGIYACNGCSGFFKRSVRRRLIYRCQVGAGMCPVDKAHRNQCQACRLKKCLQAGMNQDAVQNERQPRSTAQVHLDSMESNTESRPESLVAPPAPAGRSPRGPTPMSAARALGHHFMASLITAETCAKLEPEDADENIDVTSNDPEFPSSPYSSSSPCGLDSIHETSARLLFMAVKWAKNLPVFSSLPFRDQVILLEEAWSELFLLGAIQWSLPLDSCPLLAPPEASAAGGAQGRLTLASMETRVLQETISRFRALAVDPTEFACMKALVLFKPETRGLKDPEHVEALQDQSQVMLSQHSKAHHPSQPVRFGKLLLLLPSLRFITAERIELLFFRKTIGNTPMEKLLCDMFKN
Chain of Nonstructural protein 1 (Q194T2 whole entry): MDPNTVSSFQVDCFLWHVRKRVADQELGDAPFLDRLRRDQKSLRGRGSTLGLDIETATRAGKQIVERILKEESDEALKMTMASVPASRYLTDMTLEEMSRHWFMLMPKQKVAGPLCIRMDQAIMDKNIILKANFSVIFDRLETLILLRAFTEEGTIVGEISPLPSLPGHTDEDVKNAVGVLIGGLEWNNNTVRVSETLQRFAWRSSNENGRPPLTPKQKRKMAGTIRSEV
Chain of Glyceraldehyde-3-phosphate dehydrogenase (P04406 whole entry): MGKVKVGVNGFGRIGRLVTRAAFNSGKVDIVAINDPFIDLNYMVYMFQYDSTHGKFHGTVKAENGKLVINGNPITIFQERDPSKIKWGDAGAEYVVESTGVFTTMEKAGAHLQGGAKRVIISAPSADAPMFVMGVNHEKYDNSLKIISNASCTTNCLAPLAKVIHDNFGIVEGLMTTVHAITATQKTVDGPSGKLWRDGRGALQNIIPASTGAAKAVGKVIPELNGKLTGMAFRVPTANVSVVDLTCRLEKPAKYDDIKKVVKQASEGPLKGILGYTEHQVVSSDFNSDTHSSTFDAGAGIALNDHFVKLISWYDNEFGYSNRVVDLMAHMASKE

For `Nc1cc(-c2ccc(Cl)cc2)nn1S(=O)(=O)c1c(F)c(F)c(F)c(F)c1F`, the IC50 (as a rule, the concentration needed to halve the response being measured) in assay [1] was > 100 µM (not active); in [2], > 100 µM (not active); in [3] it was > 100 µM (not active); in assay [4], > 20 µM (inactive); in assay [5] it was > 20 µM (inactive); in assay [6], > 20 µM (inactive). In addition, the IC50 in assay [7] is > 20 µM (inactive).

`Cc1ccc2nc(SCC(=O)Nc3ccc4c(c3)CCC4)n(-c3ccccc3)c(=O)c2c1`: the CC50 (commonly the concentration that lowers cell viability or growth by half) is 130 µM (active) in [8] and > 200 µM (active) in assay [9]. In assay [10], the IC50 is 7.73 µM (active).

In the case of `c1ccc(-c2nc(-c3ccccn3)c(-c3ccccn3)[nH]2)cc1`, the IC50 in assay [11] is on record as > 17 µM (not active).

Consider `O=C(COC(=O)Cc1ccc(S(=O)(=O)N2CCOCC2)s1)NCc1ccc(Cl)cc1`, for which the values for the EC50 in [12] and in assay [13] were > 500 µM (not active) and 99.6 µM (active), respectively.

As to `O=C(O)c1ccccc1OCCOCCOc1ccccc1C(=O)O`, the IC50 in [14] was 18.2 µM (not active).

In the case of `O=C(COc1ccc(Cl)cc1Cl)Nc1nnc(-c2ccco2)s1`, the EC50 (usually the concentration giving half of the maximal effect) in assay [15] is 17 µM (active).

Turning to `Cc1cc(C)c2nc(NNC(=O)c3ccc(S(=O)(=O)N4CCCC(C)C4)cc3)sc2c1` (centres undefined), the EC50 is 0.55 µM (active) in assay [16]; 8.41 µM (active) in [17]; > 150 µM (not active) in assay [18]; 1.79 µM (active) in assay [19]; > 350 µM (not active) in assay [20]; > 55.7 µM (not active) in assay [21]. Besides, the values for the EC50 in assay [22] and in assay [23] were 3.22 µM (active) and 11.5 µM (active), respectively. Moreover, the AC50 (usually the concentration at which the activity in the assay is half-maximal) in assay [24] is 1.81 µM (active).

For the compound `NC(=NO)c1nc(N2CCCCC2)nc(N2CCCCC2)n1`, the EC50 in [25] is on record as > 50 µM (not active).

Regarding `Cc1ccccc1CNc1ncnc2cc(Cl)ccc12`, the IC50 in [26] is 3.84 µM (active); in [27], 2.38 µM (active).

On to `O=C(N/N=C/c1cc(O)ccc1Br)c1cccnc1`, for which the EC50 is 1.85 µM (active) in assay [16], 165 µM (active) in [17], > 350 µM (not active) in assay [20] and 4.86 µM (active) in [23]. Moreover, the values for the IC50 in assay [28] and in [29] were 4.8 µM (active) and 6.35 µM (active), respectively.

As to `Cn1c(=O)c2c(nc(N/N=C/c3ccco3)n2C)n(C)c1=O`, the EC50 in assay [30] was 88.9 µM (not active).
